Measurements taken from patent US20260191838A1, “COMBINATIONS COMPRISING A MENIN-MLL INHIBITOR AND A BCL-2 INHIBITOR” (JANSSEN PHARMACEUTICA NV, priority 2022, published 2026).

Tests used:
KO-52 cells = experiment: Proliferation (spheroid) assay, KO-52 control cell line; type: cell-based; conditions: Homo sapiens, 192 h; 8 days; read-out: spheroid assay_KO-52 IC50
Description: (§1) The anti-proliferative effect of menin/MLL protein/protein interaction inhibitor test compounds was assessed in human leukemia cell lines. The cell line MOLM14 harbors a MLL translocation and expresses the MLL fusion protein MLL-AF9, respectively, as well as the wildtype protein from the second allele. OCI-AML3 cells that carry the NPM1c gene mutation were also tested. […] KO-52 was used as a control cell line containing two MLL (KMT2A) wildtype alleles in order to exclude compounds that display general cytotoxic effects.
(§2) MOLM14 cells were cultured in RPMI-1640 (Sigma Aldrich) supplemented with 10% heat-inactivated fetal bovine serum (HyClone), 2 mM L-glutamine (Sigma Aldrich) and 50 μg/ml gentamycin (Gibco). KO-52 and OCI-AML3 cell lines were propagated in alpha-MEM (Sigma Aldrich) supplemented with 20% heat-inactivated fetal bovine serum (HyClone), 2 mM L-glutamine (Sigma Aldrich) and 50 μg/ml gentamycin (Gibco).
(§3) In order to assess the anti-proliferative effects, 200 MOLM14 cells, 200° C. […] Spheroid like growth was measured in real-time by live-cell imaging (IncuCyteZOOM, Essenbio, 4× objective) acquiring images at day 8. Confluence (%) as a measure of spheroid size was determined using an integrated analysis tool.
(§4) In order to determine the effect of the test compounds over time, the confluence in each well as a measure of spheroid size, was calculated. […]

OCI-AML3 cells = experiment: Proliferation (spheroid) assay, OCI-AML3; type: cell-based; conditions: Homo sapiens, OCI-AML-3, 192 h; 8 days; read-out: spheroid assay_OCI-AML3 IC50
Description: as §1, §2, §3, §4

[1] = Dynamic vapor sorption (DVS) moisture sorption analysis; type: physicochemical
Description: Dynamic Vapor Sorption (DVS)
The moisture sorption analysis (DVS) was performed using a ProUmid GmbH & Co.
KG Vsorp Enhanced dynamic vapor sorption apparatus. The moisture profile was evaluated by monitoring vapor adsorption/desorption over the range of 0 to 90% relative humidity at 25° C. The sample weight equilibrium criteria were set at 0.01% change in 45 min with minimum and maximum time of acclimation at 50 min and 120 min, respectively. The moisture profile consisted of 2 cycles of vapor adsorption/desorption.

MOLM14 cells = experiment: Proliferation (spheroid) assay, MOLM14; type: cell-based; conditions: Homo sapiens, MOLM-14, 192 h, 8 days; read-out: spheroid assay_MOLM14 IC50
Description: as §1, §2
In order to assess the anti-proliferative effects, 200 MOLM14 cells, […] or 300 KO-52 cells were seeded in 200 μl media per well in 96-well round bottom, ultra-low attachment plates (Costar, catalogue number 7007). Cell seeding numbers were chosen based on growth curves to ensure linear growth throughout the experiment. Test compounds were added at different concentrations and the DMSO content was normalized to 0.3%. Cells were incubated for 8 days at 37° C. and 5% CO2. Spheroid like growth was measured in real-time by live-cell imaging (IncuCyteZOOM, Essenbio, 4× objective) acquiring images at day 8. Confluence (%) as a measure of spheroid size was determined using an integrated analysis tool.
In order to determine the effect of the test compounds over time, the confluence in each well as a measure of spheroid size, was calculated. Confluence of the highest dose of a reference compound was used as baseline for the LC (Low control) and the confluence of DMSO treated cells was used as 0% cytotoxicity (High Control, HC).
Absolute IC50 values were calculated as percent change in confluence as follows: • LC=Low Control: cells treated with e.g. 1 μM of the cytotoxic agent staurosporin, or e.g. cells treated with a high concentration of an alternative reference compound • HC═High Control: Mean confluence (%) (DMSO treated cells) • % Effect=100−(100*(Sample-LC)/(HC-LC))
GraphPad Prism (version 7.00) was used to calculate the ICso. Dose-response equation was used for the plot of % Effect vs Log10 compound concentration with a variable slope and fixing the maximum to 100% and the minimum to 0%.

MEIS1 mRNA = MEIS1 mRNA expression assay (Quantigene Singleplex) in MOLM14 cells; type: cell-based; conditions: Homo sapiens, MOLM-14, 48 hours
Description: 2b) MEIS1 mRNA Expression Assay
MEIS1 mRNA expression upon treatment of compound was examined by Quantigene Singleplex assay (Thermo Fisher Scientific). This technology allows for direct quantification of mRNA targets using probes hybridizing to defined target sequences of interest and the signal is detected using a Multimode plate reader Envision (PerkinElmer). The MOLM14 cell line was used for this experiment. Cells were plated in 96-well plates at 3,750 cells/well in the presence of increasing concentrations of compounds. After incubation of 48 hours with compounds, cells were lysed in lysis buffer and incubated for 45 minutes at 55° C. Cell lysates were mixed with human MEIS1 specific capture probe or human RPL28 (Ribosomal Protein L28) specific probe as a normalization control, as well as blocking probes. Cell lysates were then transferred to the custom assay hybridization plate (Thermo Fisher Scientific) and incubated for 18 to 22 hours at 55° C. Subsequently, plates were washed to remove unbound materials followed by sequential addition of preamplifiers, amplifiers, and label probe. Signals (=gene counts) were measured with a Multimode plate reader Envision. IC50s were calculated by dose-response modelling using appropriate software. For all non-housekeeper genes response equal counts corrected for background and relative expression. For each sample, each test gene signal (background subtracted) was divided by the normalization gene signal (RPL28: background subtracted). Fold changes were calculated by dividing the normalized values for the treated samples by the normalized values for the DMSO treated sample. Fold changes of each target gene were used for the calculation of IC50s.

[2] = common ambient RH of 40% to 75%

## CC(=O)N1CCC(CN2CC[C@@H](Cc3cn(-c4ccc(F)cc4C(=O)N(C)C(C)C)c4cncc(C)c34)C2)CC1 [Compound 51a]
KO-52 cells
  IC50: 1200 nM
OCI-AML3 cells
  IC50: 70 nM
[1]; [2]
  total moisture mass at equilibrium: 8.5-9.5%
  water content at equilibrium: around 3 equivalents of water
[1]; crystalline HCl salt Form, 0 to 90% relative humidity, 25° C.
  hygroscopicity (DVS change in mass plot): hygroscopic
[1]; fraction obtained after the DVS test compared to starting material
  solid-state form after DVS test (XRPD): No indication of a solid-state form change
[1]; humidity range of 20-90% RH, 25° C.
  moisture adsorbed and desorbed, on average: up to 2.5 % by mass
MOLM14 cells
  IC50: 13 nM
MEIS1 mRNA
  IC50: 11 nM
